In brackets after ≈: the same amount, converted by molar mass. Read-outs that look alike come from different tables or passages of the source.
Key:
[1] = tested on: Mycobacterium tuberculosis H37Rv; experiment: Minimum Inhibitory Concentration by the Alamar Blue technique, M. tuberculosis; assay type: cell-based; conditions: for MIC: Mycobacterium tuberculosis, 168 h, read-out: Antimycobacterial activity, M. tuberculosis MIC
[2] = tested on: Mycobacterium bovis AN5; experiment: microbe, parasite or virus in culture; assay type: cell-based; conditions: for MIC: Mycobacterium tuberculosis variant bovis, AN5, 168 h, read-out: Antimycobacterial activity, M. bovis MIC; for Antimycobacterial activity, M. bovis MIC: AN5 strain, Alamar Blue, 7 days incubation, average and standard deviation of triplicate assays
[3] = tested on: M. tuberculosis; parameters: method as in PMID 17924309; conditions: cited from earlier work
[4] = Cytotoxic activity on macrophages, alamar blue; assay type: cell-based, mouse; conditions: mouse, J774A monocyte macrophage cell line; J774 macrophages, 24 h; average and standard deviation of three assays
Description: (§1) The J774A mouse monocyte macrophage cell line was grown in RPMI medium (Sigma, R0883) supplemented with 10 % heat inactivated fetal bovine serum (FBS, Sigma-Aldrich), 1 % MEM-NEAA medium (Gibco, 11140–050) and a mixture of penicillin-streptomycin to 1 %. The cell culture was maintained at 37 °C with a partial atmosphere of 5 % CO2, the evaluations were carried out when 80–90 % confluence was reached.
(§2) In a 96 well plate 50,000 cells per well were deposited in a final volume of 100 μL, and incubated for 24 h at 37 °C in partial CO2 atmosphere to promote cell adhesion for an approximate 80 % confluence. Chemical compounds to be analyzed were diluted in DMSO; cytotoxic activity was evaluated by adding twofold serial dilutions of the compound to be analyzed, starting at a 1600 μg/mL concentration; the plates were further incubated (24 h). For cytotoxic evaluation, alamar blue (Sigma, R7017) solution was added (10 % v/v) and after 3 h, results were evaluated by determination of the change in color using a fluorimeter (590 nm). For negative control, cells were incubated with 500 μg/mL concentration of DMSO (Sigma, 472301), which was the highest concentration. Cytotoxic concentration (CC50) was determined using probit non-linear regression.

[5] = tested on: J774A mouse monocyte macrophage cell line; experiment: Cytotoxic activity on macrophages, alamar blue; assay type: cell-based; conditions: J774A CC50 versus mycobacterial MIC
Description: as §1, §2

[6] = H37Rv strain, Alamar Blue, 7 days incubation, average and standard deviation of triplicate assays

| SMILES | MIC [1, 6] [µg/mL] | MIC [2] [µg/mL] | also measured |
| --- | --- | --- | --- |
| C=C1CC/C=C(\C)CC[C@@H]2[C@@H]1CC2(C)C [β-Caryophyllene] | 100 (≈ 489 µM) | 100 (≈ 489 µM) | – |
| NNC(=O)c1ccncc1 [Isoniazid, reference compound] | – | 0.16 ± 0.3 (≈ 1.17 µM) | MIC ([1]; H37RV): 0.26 ± 0.01 µg/mL (≈ 1.9 µM) |
| CC12CCC(CC1=O)C2(C)C (centres unmarked) [Camphor] | 41.7 ± 14.4 (≈ 274 µM) | 50 (≈ 328 µM) | – |
| CC(C)=CCC/C(C)=C/CC/C(C)=C/CC/C(C)=C/CO [Geranylgeraniol] | – | – | MIC against M. tuberculosis [3]: 1.56 µg/mL (≈ 5.37 µM) |
| C=C(C)[C@H]1CC=C(C)CC1 [(+) Limonene] | 25 (≈ 184 µM) | 41.7 ± 14.4 (≈ 306 µM) | – |
| CO[C@H]1/C=C/O[C@@]2(C)Oc3c(C)c(O)c4c(O)c(c(/C=N/N5CCN(C)CC5)c(O)c4c3C2=O)NC(=O)/C(C)=C\C=C\[C@H](C)[C@H](O)[C@@H](C)[C@@H](O)[C@@H](C)[C@H](OC(C)=O)[C@@H]1C [Rifampicin, reference compound] | 0.6 ± 0.14 (≈ 0.729 µM) | 0.5 ± 0.01 (≈ 0.608 µM) | – |
| CC(C)=CCC/C(C)=C/CO [Geraniol] | 12.5 (≈ 81 µM) | 12.5 (≈ 81 µM) | Antimycobacterial activity, M. tuberculosis MIC [1, 6]: 12.50 ± 0.00^EFG μg/mL |
| O=C(O)/C=C/c1ccccc1 [Cinnamic Acid] | 8.16 (≈ 55.1 µM) | 7.29 (≈ 49.2 µM) | Antimycobacterial activity, M. tuberculosis MIC [1, 6]: 8.16 ± 3.32^FG μg/mL; Antimycobacterial activity, M. bovis MIC [2]: 7.29 ± 4.73^DE μg/mL |
| C/C=C/c1ccc(OC)cc1 [t-Anethole] | 20.8 ± 7.22 (≈ 141 µM) | 58.3 ± 14.4 (≈ 394 µM) | – |
| C=C(C)[C@@H]1CC=C(C)C(=O)C1 [(+) Carvone] | 20.8 ± 7.22 (≈ 139 µM) | 41.3 ± 15 (≈ 275 µM) | – |
| CC1=CC=C(C(C)C)CC1 [α-Terpinene] | 10.4 ± 3.61 (≈ 76.4 µM) | 20.8 ± 7.22 (≈ 153 µM) | – |
| C=CCc1ccc(OC)cc1 [Estragole] | 20.8 ± 7.22 (≈ 141 µM) | 25 (≈ 169 µM) | – |
| CC(C)=CCCC(C)CCO (stereo not drawn) [β-Citronellol] | 6.25 (≈ 40 µM) | 10.4 ± 3.61 (≈ 66.6 µM) | Antimycobacterial activity, M. tuberculosis MIC [1, 6]: 6.25 ± 0.00^FG μg/mL |
| C=CC(=C)CCC=C(C)C [Myrcene] | 25 (≈ 184 µM) | 33.3 ± 14.4 (≈ 245 µM) | Antimycobacterial activity, M. tuberculosis MIC [1, 6]: 25.00 ± 0.00^CDEF μg/mL |
| COc1ccc(C=O)cc1 [p-Anisaldehyde] | 4.16 ± 1.81 (≈ 30.6 µM) | 10.4 ± 3.61 (≈ 76.5 µM) | – |
| C=C1CCC2CC1C2(C)C (stereo not drawn) [β-pinene] | 10.4 ± 3.61 (≈ 76.4 µM) | 41.7 ± 14.4 (≈ 306 µM) | – |
| Cc1ccc(C(C)C)cc1O [Carvacrol] | 2.02 (≈ 13.4 µM) | 5.2 (≈ 34.6 µM) | CC50 at 24 h [4]: 900 ± 86.6 µg/mL (≈ 5990 µM); CC90 at 24 h [4]: 1950 ± 107 µg/mL (≈ 13000 µM); CC50 concentration higher than the concentration needed for mycobacterial elimination [5]: approximately 500 fold; Antimycobacterial activity, M. tuberculosis MIC [1, 6]: 2.02 ± 0.88^FG μg/mL; Antimycobacterial activity, M. bovis MIC [2]: 5.20 ± 1.81^DE μg/mL |
| CC(C)c1ccc(C=O)cc1 [Cuminaldehyde] | 10.4 ± 3.61 (≈ 70.2 µM) | 20.8 ± 7.22 (≈ 141 µM) | – |
| C=CC(C)(O)CCC=C(C)C (centres unmarked) [Linalool] | 33.3 ± 14.4 (≈ 216 µM) | 41.7 ± 14.4 (≈ 270 µM) | – |
| C=C1CCC2(C(C)C)CC12 (centres unmarked) [Sabinene] | 33.3 ± 14.4 (≈ 245 µM) | 25 (≈ 184 µM) | – |
| CC1=CCC(=C(C)C)CC1 [Terpinolene] | 8.33 ± 3.61 (≈ 61.1 µM) | 33.3 ± 14.4 (≈ 245 µM) | – |
| Cc1ccc(C(C)C)cc1 [p-Cymene] | 91.7 ± 14.4 (≈ 683 µM) | 91.7 ± 14.4 (≈ 683 µM) | CC50 at 24 h [4]: 1170 ± 44.3 µg/mL (≈ 8690 µM); CC90 at 24 h [4]: 2200 ± 86.6 µg/mL (≈ 16400 µM) |
| C=CCc1ccc(O)c(OC)c1 [Eugenol] | 25 (≈ 152 µM) | 20.8 ± 7.22 (≈ 127 µM) | – |
| CC(=O)OC/C=C(\C)CC/C=C(\C)CC/C=C(\C)CCC=C(C)C [geranylgeranyl acetate] | – | – | MIC against M. tuberculosis [3]: 3.13 µg/mL |
| CC1CCC(C(C)C)C(O)C1 (centres unmarked) [Menthol] | 41.7 ± 14.4 (≈ 267 µM) | 83.3 ± 14.4 (≈ 533 µM) | CC50 at 24 h [4]: 1450 ± 180 µg/mL (≈ 9280 µM); CC90 at 24 h [4]: 2600 ± 304 µg/mL (≈ 16600 µM) |
| CC1=CCC2C(C1)C2(C)C (centres unmarked) [3-Carene] | 16.7 ± 7.22 (≈ 122 µM) | 33.3 ± 14.4 (≈ 245 µM) | – |
| Cc1ccc(C(C)C)c(O)c1 [Thymol] | 0.78 (≈ 5.19 µM) | 2.02 (≈ 13.4 µM) | CC50 at 24 h [4]: 483 ± 28.9 µg/mL (≈ 3220 µM); CC90 at 24 h [4]: 1130 ± 115 µg/mL (≈ 7540 µM); CC50 concentration higher than the concentration needed for mycobacterial elimination [5]: approximately 500 fold; Antimycobacterial activity, M. tuberculosis MIC [1, 6]: 0.78 ± 0.01^G μg/mL; Antimycobacterial activity, M. bovis MIC [2]: 2.02 ± 0.88^E μg/mL |
| CC12CCC(CC1)C(C)(C)O2 [Eucalyptol] | 41.7 ± 14.4 (≈ 270 µM) | 41.7 ± 14.4 (≈ 270 µM) | – |
| O=C/C=C/c1ccccc1 [Cinnamaldehyde] | 3.12 (≈ 23.6 µM) | 12.5 (≈ 94.6 µM) | Antimycobacterial activity, M. tuberculosis MIC [1, 6]: 3.12 ± 0.00^EFG μg/mL; Antimycobacterial activity, M. bovis MIC [2]: 12.50 ± 0.00^DE μg/mL |
